Values of other authors as cited in patent US20220193441A1, “ENERGY AUGMENTATION STRUCTURES, EMITTERS OR COLLECTORS, FOR USE IN NON-INVASIVE IN-SITU PHOTOBIOMODULATION” (IMMUNOLIGHT, LLC, priority 2019, published 2022).

What was measured:
[1] = tested on: epidermal growth factor receptor; settings: higher UVA light doses, with versus without trimethyl psoralen
tumors = settings: in vivo
[2] = clinical use

Cc1cc2cc3c(C)cc(=O)oc3c(C)c2o1 [trimethyl psoralen]
inhibition of 125I-EGF specific binding [1]: higher efficiency

CC(=O)[O-].CC(=O)[O-].CCc1c(CC)c2cc3nc(cnc4cc(OCCOCCOCCOC)c(OCCOCCOCCOC)cc4ncc4nc(cc1[n-]2)C(CCCO)=C4C)C(C)=C3CCCO.O.[Lu+3] [Lutetium texaphryin, Motexafin lutetium]
selectivity for tumors compared to normal tissues (tumors): one of the greatest reported selectivities for tumors

Oc1cccc(-c2c3nc(c(-c4cccc(O)c4)c4ccc([nH]4)c(-c4cccc(O)c4)c4nc(c(-c5cccc(O)c5)c5ccc2[nH]5)CC4)C=C3)c1 [Foscan, Tetra (m-hydroxyphenyl) chlorin]
duration of skin photosensitivity [2]: approximately 2 weeks
